What was measured:
[1] = molecular target: T1, L-plastin (PG772) (Homo sapiens, UniProt P13796); experiment: Isolation of proteins binding 3H-triptolide in Jurkat cells; conditions: 3H-labeled compound incubated with Jurkat cells
T1 construct: Jurkat cells from expanding cultures were labeled with; endogenous in cells; host or cells: Jurkat
Method: Triptolide target molecules were isolated and identified by purification and identification of molecules that bind ^3H-triptolide. Jurkat cells from expanding cultures were labeled with ^3H-triptolide by cultivation at 37° C. with 5% CO2 for a period of time between a few hours and overnight (usually 6-7 hours) and harvested by centrifugation and washing in ice-cold phosphate buffered saline. The cells (usually 1-3×10^6/ml) were generally labeled with ^3H-triptolide to a final concentration of 35 nM (100 μCi/200 ml of medium). […]
(§1) The cells were extracted with M-per buffer (Pierce) and homogenized in presence of a protease inhibitor cocktail, sometimes including other reagents such as deoxyribonuclease (DNase). […] When the extracts components were found not to be sufficiently purified, enriched or reduced in number, 2D gel electrophoresis was employed, followed by fluorography for ^3H-associated radioactivity detection, and MALDI/MS of the corresponding peptides (after proteolysis) and peptide fingerprinting. […]
MALDI-MS peptide fingerprinting analysis identified HSP 90β (PG771) in fraction #4 and L-plastin (PG772) in fraction #9. […] A positive spot on the film (fluorographically positive, therefore positive for ^3H-associated radioactivity) was seen near the 29 kDa protein marker. […]

[2] = system: Hypothetical Protein (GI 14758649), similar to heat shock protein (90 kDa) beta (PG787); experiment: as above; parameters: species or system human; conditions: 3H-labeled Jurkat cell extract
Method: (§2) Triptolide target molecules were isolated and identified by purification and identification of molecules that bind ^3H-triptolide. Jurkat cells from expanding cultures were labeled with ^3H-triptolide by cultivation at 37° C. with 5% CO2 for a period of time between a few hours and overnight (usually 6-7 hours) and harvested by centrifugation and washing in ice-cold phosphate buffered saline. The cells (usually 1-3×10^6/ml) were generally labeled with ^3H-triptolide to a final concentration of 35 nM (100 μCi/200 ml of medium). Collected cell pellets were pooled, and the cells were either extracted and subjected to separation and purification at that time, or were frozen and stored at −20° C. as pellets for extraction and investigation at a later time.
as §1

[3] = system: NF-κB; conditions: cited from earlier work
[4] = molecular target: T2, Hypothetical Protein—GI 7705346 (PG790) (Homo sapiens, UniProt Q9Y4R8); experiment: Isolation of proteins binding 3H-triptolide in Jurkat cells; conditions: 3H-labeled Jurkat cell extract
T2 construct: Jurkat cells from expanding cultures were labeled with; endogenous in cells; host or cells: Jurkat
Method: as §2, §1

[5] = system: Phosphatidyl Inositol 3 Kinase—Class II (PG776); experiment: as above; parameters: species or system human; conditions: 3H-labeled Jurkat cell extract
Method: as §2, §1

[6] = system: PC12 cells; conditions: cited from earlier work
[7] = molecular target: T3, Eukaryotic Translation Elongation Factor 2 (EEF2) (PG786) (Homo sapiens, UniProt P13639); experiment: Isolation of proteins binding 3H-triptolide in Jurkat cells; conditions: 3H-labeled Jurkat cell extract
T3 construct: endogenous in cells; host or cells: Jurkat
Method: as §2, §1

T1 sequence (P13796 whole entry): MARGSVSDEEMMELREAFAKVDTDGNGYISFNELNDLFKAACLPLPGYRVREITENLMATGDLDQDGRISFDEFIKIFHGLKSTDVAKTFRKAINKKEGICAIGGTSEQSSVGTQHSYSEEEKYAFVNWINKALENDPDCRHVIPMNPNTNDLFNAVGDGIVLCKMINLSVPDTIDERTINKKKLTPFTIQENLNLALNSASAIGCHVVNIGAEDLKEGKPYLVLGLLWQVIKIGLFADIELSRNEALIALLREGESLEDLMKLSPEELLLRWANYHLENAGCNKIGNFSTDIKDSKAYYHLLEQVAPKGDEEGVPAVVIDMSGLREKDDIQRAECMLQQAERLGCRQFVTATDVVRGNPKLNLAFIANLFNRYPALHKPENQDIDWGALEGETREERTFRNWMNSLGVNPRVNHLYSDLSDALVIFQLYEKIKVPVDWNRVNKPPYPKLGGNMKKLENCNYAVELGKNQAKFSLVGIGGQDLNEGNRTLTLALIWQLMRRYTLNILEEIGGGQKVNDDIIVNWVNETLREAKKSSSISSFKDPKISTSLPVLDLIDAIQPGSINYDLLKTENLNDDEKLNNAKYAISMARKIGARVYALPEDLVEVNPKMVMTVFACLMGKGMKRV
T2 sequence (Q9Y4R8 whole entry): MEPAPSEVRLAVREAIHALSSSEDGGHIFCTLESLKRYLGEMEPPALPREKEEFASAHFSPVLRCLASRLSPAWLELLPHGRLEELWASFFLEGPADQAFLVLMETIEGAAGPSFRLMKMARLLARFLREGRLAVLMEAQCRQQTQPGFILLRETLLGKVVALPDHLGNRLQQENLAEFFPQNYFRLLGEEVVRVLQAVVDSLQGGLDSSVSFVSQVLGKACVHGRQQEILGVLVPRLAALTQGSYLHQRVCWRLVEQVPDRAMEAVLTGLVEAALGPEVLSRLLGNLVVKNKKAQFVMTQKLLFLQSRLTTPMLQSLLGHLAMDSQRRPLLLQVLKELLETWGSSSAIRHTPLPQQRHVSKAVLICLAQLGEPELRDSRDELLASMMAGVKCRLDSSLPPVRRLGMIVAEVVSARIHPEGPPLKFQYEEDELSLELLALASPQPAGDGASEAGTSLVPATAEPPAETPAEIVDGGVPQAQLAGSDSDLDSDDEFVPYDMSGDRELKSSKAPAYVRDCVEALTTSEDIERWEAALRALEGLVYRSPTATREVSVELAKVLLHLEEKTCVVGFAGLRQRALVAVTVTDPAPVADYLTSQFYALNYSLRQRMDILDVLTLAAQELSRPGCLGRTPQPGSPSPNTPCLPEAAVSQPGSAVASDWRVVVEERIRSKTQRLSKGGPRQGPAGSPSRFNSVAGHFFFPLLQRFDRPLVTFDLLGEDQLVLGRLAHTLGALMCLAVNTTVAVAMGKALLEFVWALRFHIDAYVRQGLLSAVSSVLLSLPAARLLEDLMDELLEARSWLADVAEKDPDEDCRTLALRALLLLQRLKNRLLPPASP

Q: Which “3H-associated protein identified as triptolide target: L-plastin” value [1] does the source give for CC(C)[C@]12O[C@H]1[C@@H]1O[C@]13[C@]1(O[C@H]1C[C@H]1C4=C(CC[C@@]13C)C(=O)OC4)[C@@H]2O [triptolide] here?
A: Its value is “identified”.

Q: And the “3H-associated protein identified as triptolide target: GI 14758649” value [2]?
A: Its value is “identified”.

Q: What about the NF-κB activation [3] of the same compound?
A: Its NF-κB activation is “inhibit NF-κB activation”.

Q: What about the “3H-associated protein identified as triptolide target: GI 7705346” value [4] of the same compound?
A: The value was “identified”.

Q: What about the “3H-associated protein identified as triptolide target: PI 3 Kinase Class II” value [5] of the same compound?
A: Its value is “identification”.

Q: What about the β-amyloid-induced apoptosis [6] of the same compound?
A: The β-amyloid-induced apoptosis was “markedly inhibit β-amyloid-induced apoptosis”.

Q: What about the “β-amyloid-induced increase of intracellular Ca2+ concentration” value [6] of the same compound?
A: Its value is “inhibit the increase of intracellular Ca^2+ concentration induced by β-amyloid”.

Q: And the “3H-associated protein identified as triptolide target: EEF2” value [7]?
A: The value was “identified”.

Reference: patent US8617906B2, “Identification and screening of triptolide target molecules” (priority 2004, dated 2013)
